Results from patent publication US20170313974A1, “Modulation of Tissue Fatty Acid Composition of a Host by Human Gut Bacteria” (University College Cork, National University of Ireland, priority 2007, published 2017).
Marks after values point to notes of the source that are not given here.

How the values were obtained:
BALB/c mice = experiment: Tissue fatty acid composition, BALB/c α-linolenic acid feeding trial (8 weeks); assay type: in vivo
Protocol: Female BALB/c mice were purchased from Harlan ltd. (Briester, Oxon, UK) at 8 weeks of age and fed a normal diet for 1 week to stabilize all metabolic conditions. […] Mice were maintained at 4 per cage and exposed to a 12-h light:dark cycle at a constant temperature of 25° C. The mice were held at the Biological Services Unit in University College Cork. The animal experimentation was performed according to the guidelines for the care and use of laboratory animals approved by the Department of Health and Children.
(§1) Animals were fed standard mouse chow ad libitum with free access to water at all times. […] Following 8 weeks on experimental diets, the animals were sacrificed by cervical dislocation. Liver, adipose tissue and brain were removed from the carcasses, blotted dry on filter paper, weighed and frozen in liquid nitrogen. All samples were stored at −80° C. until processed.
Lipids were extracted according to the method by O'Fallon et al. (20). Briefly, samples were cut into 1.5-mm rectangular strips and placed into a screw-cap Pyrex culture tube together with 0.7 ml of 10 N KOH in water and 5.3 ml of MeOH. The tubes were incubated in a 55° C. water bath for 1.5 h with vigorous hand-shaking every 20 min. After cooling below room temperature, 0.58 ml of 24 N H2SO4 in water was added. The tubes were mixed by inversion and with precipitated K2SO4 present incubated again in 55° C. for 1.5 h with hand-shaking every 20 min. FAME were recovered by addition of 3 ml hexane and vortex mixed and separated by GLC (Varian 3400, Varian, Walnut Creek, Calif. USA fitted with a flame ionization detector) using a Chrompack CP Sil 88 column (Chrompack, Middleton, The Netherlands, 100 m×0.25 mm i.d., 0.20 μm film thickness) and He as carrier gas. The column oven was initially programmed at 80° C. for 8 min, and increased 8.5° C./min to a final column temperature of 200° C. The injection volume was 0.6 μl, with automatic sample injection on a SPI 1093 splitless on-column temperature programmable injector. Data were recorded and analysed on a Minichrom PC system (VG Data System, Manchester, U.K.). Peaks were identified with reference to retention times of fatty acids in a standard mixture. All fatty acid results are shown as mean±standard error mean (SEM) g/100 g FAME.

[1] = Body weight gain, BALB/c α-linolenic acid trial; assay type: in vivo, BALB/c mice; conditions: 8 week trial period
Protocol: as §1

splenocytes = experiment: Cytokine production by stimulated splenocytes of fed SCID mice with colitis; assay type: in vivo
Protocol: (§2) Materials and Methods Severe Combined Immuno Deficient (SCID) mice were used in this study, which had been induced with colitis through adoptive transfer of splenic CD4^+ CD45RB^high T cells from BALB/c mice. […] Ten weeks after colitis induction, cytokine production by splenocytes was measured in vitro by ELISA, myeloperoxidase (MPO) activity was determined in colonic homogenates and fatty acid composition in liver, adipose tissue, cecum and colon was determined by gas liquid chromatography (GLC). Similar studies have also been conducted in pigs (data not shown here) and similar results obtained.
Cytokine production in response to defined stimuli, in vitro, was measured using enzyme-linked immunosorbent assay (ELISA). Splenocyte isolation was performed using an erythrocyte lysing kit (R&D Systems). The spleens of all mice were removed at the time of sacrifice, blotted on filter paper and weighed. Each spleen was immediately placed in Hanks' buffer containing 10% fetal calf serum. The spleen was teased apart and sieved through a cell strainer into a 50 ml centrifuge tube. Cells were centrifuged for 10 minutes at 200 g. The cells were resuspended in 2 ml M-lyse buffer, which lyses red blood cells, and incubated for 8 minutes at room temperature. Lysis was deactivated using wash buffer and the cell suspension was centrifuged for 10 minutes at 200 g. Cells were resuspended in DMEM (10% fetal calf serum, 1% Pen/Strep, Sigma) and diluted to 1×10^6 cells/ml for in vitro culturing. The isolated lymphocytes were cocultured with the proinflammatory bacterium Salmonella typhimurium UK1 (1×10^6 cells/ml) and with antiCD3-antiCD28 monoclonal antibodies for 48 hours at 37° C. Cell supernatants were isolated and stored at −80° C. Cytokine analysis was performed on the supernatants using a BD™ Cytometric Bead Array (CBA) Mouse Inflammation Kit (BD Biosciences, US).

SCID mice = experiment: Tissue fatty acid composition, SCID mouse colitis feeding study (10 weeks); assay type: in vivo
Protocol: as §2
SCID mice were purchased from Harlan ltd. (Briester, Oxon, UK) at 6 weeks of age and fed a normal diet for 1 week to stabilize all metabolic conditions. Each cage contained one mouse. Mice were exposed to a 12-h light:dark cycle and maintained at a constant temperature of 25° C. One week after arrival, mice were divided into five groups for different dietary treatments (Table I).
For linoleic acid and c9t11 CLA treatment, a powdered diet blended with the drug was administered for 10 weeks to yield a dose of drug at approximately 90 mg/day/mouse (this is based on preliminary experiments by Bassaganya-Riera et al. (22) that established an optimal dose of fatty acids of 1 g/100 g of diet).
After the adoptive transfer, mice were weighed three times a week and examined for clinical signs of disease associated with colitis (ie. rectal bleeding, diarrhoea and rectal prolapse). After 10 weeks on experimental diets, the mice were sacrificed by cervical dislocation. Livers, adipose tissue, spleens, colons and cecums were removed from the carcasses, blotted dry on filter paper, weighed and frozen in liquid nitrogen. All samples were stored at −80° C. until processed. The colon was divided into different sections for MPO activity and fatty acid composition.
Lipids were extracted with Chloroform:Methanol 2:1 v/v according to Folch et al. (25). Briefly, tissue or faecal samples, ˜1 g liver, 300 mg small intestine, 200 mg adipose tissue, 250 mg colon, 800 mg cecum or 100 mg feaces were homogenised in over a 25 fold excess of CHCl3:CH3OH (2:1 v/v) and washed with 0.88% KCl solution. Excess solvent was dried down under a gentle stream of N2 at 40° C. and lipids were stored at −20° C. in 1 ml chloroform. Fatty acid methyl esters (FAME) were prepared using first 10 ml 0.5N NaOH in methanol for 10 min at 90° C. followed by 10 ml 14% BF3 in methanol for 10 min at 90° C. (26). FAME was recovered with hexane. Prior to GC analysis samples were dried over 0.5 g of anhydrous sodium sulphate for an hour and stored at −20° C. FAME were separated by gas liquid chromatography (GLC Varian 3400, Varian, Walnut Creek, Calif. USA fitted with a flame ionization detector) using a Chrompack CP Sil 88 column (Chrompack, Middleton, The Netherlands, 100 m×0.25 mm i.d., 0.20 μm film thickness) and He as a carrier gas. The column oven was programmed to be held initially at 80° C. for 8 minutes then increased 8.5° C./min to a final column temperature of 200° C. The injection volume used was 0.6 μl with automatic sample injection with a splitless on SPI on-column temperature programmable injector. Data was recorded and analysed on a Minichrom PC system (VG Data System, Manchester, U.K.). Tri-heptadecanoate (Sigma) was used as an internal standard, and peaks were identified with reference to retention times of fatty acids in a standard mixture. All fatty acid results are shown as mean±SD (n=8) g/100 g FAME.

[2] = adipose tissue, 8 weeks, SEM, n = 8
[3] = stimulation with S. typhimurium UK1
[4] = stimulation with antiCD3-antiCD28

## CC/C=C\C/C=C\C/C=C\CCCCCCCC(=O)O [B, α-linolenic acid]
BALB/c mice; [2]
  C16:0 palmitic acid, adipose tissue: 28.73 ± 2.16^c g/100 g FAME
  C16:1c9 palmitoleic acid, adipose tissue: 6.07 ± 2.01 g/100 g FAME
  C18:0 stearic acid, adipose tissue: 8.00 ± 2.33 g/100 g FAME
  C18:1c9 oleic acid, adipose tissue: 14.83 ± 3.01 g/100 g FAME
  C18:2n-6 linoleic acid, adipose tissue: 18.80 ± 0.81^c g/100 g FAME
  C18:3n-3 linolenic acid, adipose tissue: 7.35 ± 2.15^c,d g/100 g FAME
  C18:3n-6 γ-linolenic acid, adipose tissue: 0.13 ± 0.03 g/100 g FAME
  C18:4n-3 stearidonic acid, adipose tissue: 0.12 ± 0.03 g/100 g FAME
  C20:3n-6 dihomo-γ-linolenic acid, adipose tissue: 0.30 ± 0.09 g/100 g FAME
  C20:4n-6 arachidonic acid, adipose tissue: 5.27 ± 2.04^c,d g/100 g FAME
  C20:5n-3 eicosapentaenoic acid, adipose tissue: 2.37 ± 0.76^c,d g/100 g FAME
  C22:5n-3 docosapentaenoic acid, adipose tissue: 0.55 ± 0.14^c,d g/100 g FAME
  C22:6n-3 docosahexaenoic acid, adipose tissue: 1.17 ± 0.36 g/100 g FAME
  n-6/n-3, adipose tissue: 2.15 ± 0.15^c,d
BALB/c mice; brain, 8 weeks, SEM, n = 8
  C16:0, brain: 32.38 ± 0.44^c g/100 g FAME
  C16:1c9, brain: 0.94 ± 0.03^a,c,d g/100 g FAME
  C18:0, brain: 19.87 ± 0.14^a g/100 g FAME
  C18:1c9, brain: 17.61 ± 0.24^ g/100 g FAME
  C18:2n-6, brain: 1.54 ± 0.10^a,c,d g/100 g FAME
  C20:4n-6, brain: 6.88 ± 0.12^c,d g/100 g FAME
  C20:5n-3, brain: 0.15 ± 0.01^c,d g/100 g FAME
  C22:5n-3, brain: 0.24 ± 0.01^c g/100 g FAME
  C22:6n-3, brain: 8.87 ± 0.30^a g/100 g FAME
  n-6/n-3, brain: 0.89 ± 0.03^a
BALB/c mice; brain, 8 weeks, SEM, n = 8, ND = not detected
  C18:3n-3, brain: 0.18 ± 0.02^a,c,d g/100 g FAME
BALB/c mice; compared with group C and group D, p<0.001
  higher concentrations of α-linolenic acid and EPA in liver and adipose tissue: 10 fold
BALB/c mice; compared with group D
  arachidonic acid/EPA ratio in adipose tissue, fold lower: ~20 fold
  arachidonic acid/EPA ratio in liver, fold lower: approximately 30 fold
BALB/c mice; liver, 8 weeks, SEM, n = 8
  C16:0 palmitic acid, liver: 23.89 ± 0.71^c,d g/100 g FAME
  C16:1c9 palmitoleic acid, liver: 2.07 ± 0.18^a,d g/100 g FAME
  C18:0 stearic acid, liver: 12.36 ± 0.44^a,d g/100 g FAME
  C18:1c9 oleic acid, liver: 10.16 ± 0.62^c,d g/100 g FAME
  C18:2n-6 linoleic acid, liver: 18.32 ± 0.21^d g/100 g FAME
  C18:3n-3 linolenic acid, liver: 9.47 ± 0.64^c,d g/100 g FAME
  C18:3n-6 γ-linolenic acid, liver: 0.17 ± 0.01^c,d g/100 g FAME
  C18:4n-3 stearidonic acid, liver: 0.16 ± 0.01^c,d g/100 g FAME
  C20:3n-6 dihomo-γ-linolenic acid, liver: 0.61 ± 0.02^a g/100 g FAME
  C20:4n-6 arachidonic acid, liver: 5.57 ± 0.14^a,c,d g/100 g FAME
  C20:5n-3 eicosapentaenoic acid, liver: 3.07 ± 0.12^a,c,d g/100 g FAME
  C22:5n-3 docosapentaenoic acid, liver: 0.94 ± 0.05^c,d g/100 g FAME
  C22:6n-3 docosahexaenoic acid, liver: 5.66 ± 0.28^d g/100 g FAME
  n-6/n-3, liver: 1.30 ± 0.07^c,d
[1]
  body weight gain: did not significantly influence

## CCCCCC/C=C/C=C\CCCCCCCC(=O)O [c9, t11 CLA, cis-9, trans-11 CLA]
splenocytes; [3]
  IFN-γ levels: reduced
  IL-6 levels: reduced
  TNF-α levels: 1428.7
splenocytes; [4]
  IFN-γ levels: 1334.2
  IL-6 levels: 213.7
  TNF-α levels: 458.9
SCID mice; all tissues
  16:1n-7 (palmitoleic acid) in all tissues: higher
SCID mice; cecum digests
  20:4n-6 in cecum digests: significant decrease
SCID mice; colon
  16:0 (palmitic acid) in colon: significantly higher
SCID mice; compared to other groups
  arachidonic acid, 20:4n-6 (AA) in liver: decrease
  c9, t11 CLA in all tissues: much higher
